Literature values, collected in patent publication US20250152507A1, “SUBLINGUAL COMPOSITIONS FOR ERECTILE DYSFUNCTION” (Woody's Medical LLC, priority 2023, published 2025).

Test system: men with mild ED
Conditions: reported in C. McMahon et al., BMJ 2006

CN1CCc2cccc3c2[C@H]1Cc1ccc(O)c(O)c1-3 [Apomorphine, apomorphine]
effect in men with mild ED: only a small effect
